Source: ChEMBL document CHEMBL5715954, “Silencing c-Myc translation as a therapeutic strategy through targeting PI3Kδ and CK1ε in hematological malignancies” (Blood, 2017)

How the values were obtained:
Parameters in all cases: scale not given: the % may be the effect or the level left
[1] = target: G protein-coupled receptor kinase 5 (Homo sapiens) (UniProt P34947); assay: Inhibition of human GRK5 assessed as enzyme activity at 1 uM using casein as substrate preincubated for 20 mins followed by [gamma-33P]-ATP addition and measured after 120 mins by radiometric Hot-SpotSM Kinase assay relative to control
[2] = target: Calcium/calmodulin-dependent protein kinase type II subunit beta (Homo sapiens) (UniProt Q13554); assay: Inhibition of human CAMK2b assessed as enzyme activity at 1 uM using KKALRRQETVDAL as substrate preincubated for 20 mins followed by [gamma-33P]-ATP addition and measured after 120 mins by radiometric Hot-SpotSM Kinase assay relative to control
[3] = target: T1, G protein-coupled receptor kinase 3 (Homo sapiens) (UniProt P35626); assay: Inhibition of human GRK3 assessed as enzyme activity at 1 uM using casein as substrate preincubated for 20 mins followed by [gamma-33P]-ATP addition and measured after 120 mins by radiometric Hot-SpotSM Kinase assay relative to control
T1 sequence (whole entry): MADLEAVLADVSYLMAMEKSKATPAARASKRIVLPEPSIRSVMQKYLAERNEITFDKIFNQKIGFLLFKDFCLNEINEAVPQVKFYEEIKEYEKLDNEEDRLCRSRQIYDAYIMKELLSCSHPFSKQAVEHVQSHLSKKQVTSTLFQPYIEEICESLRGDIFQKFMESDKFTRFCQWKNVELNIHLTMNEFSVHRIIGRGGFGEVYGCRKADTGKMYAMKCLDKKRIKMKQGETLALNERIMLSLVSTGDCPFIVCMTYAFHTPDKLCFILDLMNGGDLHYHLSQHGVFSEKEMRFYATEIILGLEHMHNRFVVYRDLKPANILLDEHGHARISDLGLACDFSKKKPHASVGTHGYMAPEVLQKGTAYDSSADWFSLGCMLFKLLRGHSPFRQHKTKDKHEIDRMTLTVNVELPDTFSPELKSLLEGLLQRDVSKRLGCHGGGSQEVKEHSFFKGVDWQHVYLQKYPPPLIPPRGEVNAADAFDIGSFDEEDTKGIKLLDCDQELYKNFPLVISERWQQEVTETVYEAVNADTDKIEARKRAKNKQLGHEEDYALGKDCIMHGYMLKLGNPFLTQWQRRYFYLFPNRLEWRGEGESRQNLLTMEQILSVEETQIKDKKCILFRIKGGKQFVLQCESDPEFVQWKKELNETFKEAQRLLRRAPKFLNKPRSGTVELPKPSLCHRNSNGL

[4] = target: T2, 3-phosphoinositide-dependent protein kinase 1 (Homo sapiens) (UniProt O15530); assay: Inhibition of human PDK1 assessed as enzyme activity at 1 uM using KTFCGTPEYLAPEVRREPRILSEEEQEMFRDFDYIADWC as substrate preincubated for 20 mins followed by [gamma-33P]-ATP addition and measured after 120 mins by radiometric Hot-SpotSM Kinase assay relative to control
T2 sequence (whole entry): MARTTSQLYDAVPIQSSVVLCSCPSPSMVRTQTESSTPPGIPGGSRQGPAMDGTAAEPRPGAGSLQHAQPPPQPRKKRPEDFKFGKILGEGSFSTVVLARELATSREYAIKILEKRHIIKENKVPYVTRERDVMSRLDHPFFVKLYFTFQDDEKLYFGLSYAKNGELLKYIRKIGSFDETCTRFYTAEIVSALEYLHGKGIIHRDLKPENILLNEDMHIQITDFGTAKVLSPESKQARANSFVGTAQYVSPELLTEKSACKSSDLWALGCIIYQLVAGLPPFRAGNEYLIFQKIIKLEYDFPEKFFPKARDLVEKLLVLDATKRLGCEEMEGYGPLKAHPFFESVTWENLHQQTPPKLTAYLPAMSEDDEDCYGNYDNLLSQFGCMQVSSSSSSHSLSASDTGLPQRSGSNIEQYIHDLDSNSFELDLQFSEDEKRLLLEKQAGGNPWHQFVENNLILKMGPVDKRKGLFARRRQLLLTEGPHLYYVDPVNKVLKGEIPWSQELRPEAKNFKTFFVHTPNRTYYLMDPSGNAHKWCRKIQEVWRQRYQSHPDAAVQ

[5] = target: Wee1-like protein kinase (Homo sapiens) (UniProt P30291); assay: Inhibition of human WEE1 assessed as enzyme activity at 1 uM using CDK1 (D146N)/cyclin B1 as substrate preincubated for 20 mins followed by [gamma-33P]-ATP addition and measured after 120 mins by radiometric Hot-SpotSM Kinase assay relative to control
[6] = target: LIM domain kinase 1 (Homo sapiens) (UniProt P53667); assay: Inhibition of human LIMK1 assessed as enzyme activity at 1 uM using cofilin 1 as substrate preincubated for 20 mins followed by [gamma-33P]-ATP addition and measured after 120 mins by radiometric Hot-SpotSM Kinase assay relative to control
[7] = target: Tyrosine-protein kinase Lyn (Homo sapiens) (UniProt P07948); assay: Inhibition of human LYN assessed as enzyme activity at 1 uM using poly[Glu:Tyr] (4:1) as substrate preincubated for 20 mins followed by [gamma-33P]-ATP addition and measured after 120 mins by radiometric Hot-SpotSM Kinase assay relative to control
[8] = target: Receptor-type tyrosine-protein kinase FLT3 (Homo sapiens) (UniProt P36888); assay: Inhibition of human FLT3 assessed as enzyme activity at 1 uM using EAIYAAPFAKKK as substrate preincubated for 20 mins followed by [gamma-33P]-ATP addition and measured after 120 mins by radiometric Hot-SpotSM Kinase assay relative to control
[9] = target: Calcium/calmodulin-dependent protein kinase type II subunit alpha (Homo sapiens) (UniProt Q9UQM7); assay: Inhibition of human CAMK2a assessed as enzyme activity at 1 uM using KKALRRQETVDAL as substrate preincubated for 20 mins followed by [gamma-33P]-ATP addition and measured after 120 mins by radiometric Hot-SpotSM Kinase assay relative to control
[10] = target: Receptor tyrosine-protein kinase erbB-2 (Homo sapiens) (UniProt P04626); assay: Inhibition of human ERBB2 assessed as enzyme activity at 1 uM using poly[Glu:Tyr] (4:1) as substrate preincubated for 20 mins followed by [gamma-33P]-ATP addition and measured after 120 mins by radiometric Hot-SpotSM Kinase assay relative to control
[11] = target: Casein kinase II subunit alpha' (Homo sapiens) (UniProt P19784); assay: Inhibition of human CK2a2 assessed as enzyme activity at 1 uM using RRRDDDSDDD as substrate preincubated for 20 mins followed by [gamma-33P]-ATP addition and measured after 120 mins by radiometric Hot-SpotSM Kinase assay relative to control
[12] = target: Protein kinase C beta type (Homo sapiens) (UniProt P05771); assay: Inhibition of human PKCb2 assessed as enzyme activity at 1 uM using ERMRPRKRQGSVRRRV as substrate preincubated for 20 mins followed by [gamma-33P]-ATP addition and measured after 120 mins by radiometric Hot-SpotSM Kinase assay relative to control
[13] = target: Serine/threonine-protein kinase 25 (Homo sapiens) (UniProt O00506); assay: Inhibition of human STK25 assessed as enzyme activity at 1 uM using myelin basic protein as substrate preincubated for 20 mins followed by [gamma-33P]-ATP addition and measured after 120 mins by radiometric Hot-SpotSM Kinase assay relative to control
Chain of Serine/threonine-protein kinase 25 (Homo sapiens) (O00506 whole entry, looked up): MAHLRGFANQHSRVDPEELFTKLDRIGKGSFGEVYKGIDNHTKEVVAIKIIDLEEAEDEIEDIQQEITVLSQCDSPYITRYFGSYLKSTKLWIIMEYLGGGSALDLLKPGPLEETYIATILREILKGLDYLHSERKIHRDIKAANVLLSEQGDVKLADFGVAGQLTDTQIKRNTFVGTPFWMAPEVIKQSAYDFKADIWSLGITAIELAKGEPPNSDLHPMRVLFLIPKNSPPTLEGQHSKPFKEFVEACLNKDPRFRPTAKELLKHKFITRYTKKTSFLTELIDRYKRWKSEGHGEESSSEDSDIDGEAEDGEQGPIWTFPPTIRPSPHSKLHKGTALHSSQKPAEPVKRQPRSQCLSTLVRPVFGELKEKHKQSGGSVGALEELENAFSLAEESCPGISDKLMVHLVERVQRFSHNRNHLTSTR

Chain of G protein-coupled receptor kinase 5 (Homo sapiens) (P34947 whole entry, looked up): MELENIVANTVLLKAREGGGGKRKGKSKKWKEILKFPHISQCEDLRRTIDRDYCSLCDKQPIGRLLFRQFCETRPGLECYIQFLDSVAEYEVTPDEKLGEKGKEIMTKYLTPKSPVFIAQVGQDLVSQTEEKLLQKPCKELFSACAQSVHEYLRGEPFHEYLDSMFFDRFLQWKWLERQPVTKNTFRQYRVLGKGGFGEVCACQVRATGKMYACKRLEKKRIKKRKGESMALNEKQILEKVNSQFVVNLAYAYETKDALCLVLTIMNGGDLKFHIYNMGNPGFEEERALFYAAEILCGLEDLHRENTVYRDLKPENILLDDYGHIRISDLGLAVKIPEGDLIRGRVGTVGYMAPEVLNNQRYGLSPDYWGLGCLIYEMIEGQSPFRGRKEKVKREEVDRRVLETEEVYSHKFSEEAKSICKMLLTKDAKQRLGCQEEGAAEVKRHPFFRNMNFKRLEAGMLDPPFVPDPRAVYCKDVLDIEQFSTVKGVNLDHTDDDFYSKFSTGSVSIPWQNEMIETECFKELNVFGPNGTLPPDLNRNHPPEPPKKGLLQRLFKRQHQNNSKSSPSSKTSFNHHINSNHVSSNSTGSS
Chain of LIM domain kinase 1 (Homo sapiens) (P53667 whole entry, looked up, the tested form may be a part): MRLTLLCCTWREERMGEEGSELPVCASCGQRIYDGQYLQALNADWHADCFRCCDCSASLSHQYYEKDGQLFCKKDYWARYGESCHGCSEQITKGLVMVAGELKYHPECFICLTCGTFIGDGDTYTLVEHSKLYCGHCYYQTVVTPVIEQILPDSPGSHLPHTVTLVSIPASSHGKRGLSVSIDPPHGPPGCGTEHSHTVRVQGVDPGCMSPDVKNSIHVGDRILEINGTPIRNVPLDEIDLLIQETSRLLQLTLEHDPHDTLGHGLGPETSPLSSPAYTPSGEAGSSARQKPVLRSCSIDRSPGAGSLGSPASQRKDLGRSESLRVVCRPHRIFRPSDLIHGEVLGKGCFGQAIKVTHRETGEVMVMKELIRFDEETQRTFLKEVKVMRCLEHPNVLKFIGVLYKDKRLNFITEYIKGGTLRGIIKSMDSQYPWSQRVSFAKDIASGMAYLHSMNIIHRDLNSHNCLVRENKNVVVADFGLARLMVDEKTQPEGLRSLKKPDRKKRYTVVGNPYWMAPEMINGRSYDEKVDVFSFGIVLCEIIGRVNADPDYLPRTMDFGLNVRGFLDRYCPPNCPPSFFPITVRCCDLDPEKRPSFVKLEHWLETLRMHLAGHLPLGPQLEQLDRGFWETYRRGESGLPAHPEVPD
Chain of Tyrosine-protein kinase Lyn (Homo sapiens) (P07948 2-512 limits assumed): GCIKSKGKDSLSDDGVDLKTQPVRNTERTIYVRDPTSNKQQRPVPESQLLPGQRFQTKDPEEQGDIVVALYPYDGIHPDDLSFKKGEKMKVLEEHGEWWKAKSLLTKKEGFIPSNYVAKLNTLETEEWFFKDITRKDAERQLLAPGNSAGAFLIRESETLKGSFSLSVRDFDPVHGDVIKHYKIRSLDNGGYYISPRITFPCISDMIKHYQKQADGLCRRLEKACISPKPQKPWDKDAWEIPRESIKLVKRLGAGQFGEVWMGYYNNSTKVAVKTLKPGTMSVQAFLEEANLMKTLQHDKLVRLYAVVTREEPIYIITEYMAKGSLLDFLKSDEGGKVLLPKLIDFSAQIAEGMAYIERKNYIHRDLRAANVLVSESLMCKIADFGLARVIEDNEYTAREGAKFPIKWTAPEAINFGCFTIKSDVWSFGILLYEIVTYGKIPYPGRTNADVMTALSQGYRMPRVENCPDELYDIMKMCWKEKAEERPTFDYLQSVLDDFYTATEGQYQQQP
Chain of Protein kinase C beta type (Homo sapiens) (P05771 2-671 limits assumed): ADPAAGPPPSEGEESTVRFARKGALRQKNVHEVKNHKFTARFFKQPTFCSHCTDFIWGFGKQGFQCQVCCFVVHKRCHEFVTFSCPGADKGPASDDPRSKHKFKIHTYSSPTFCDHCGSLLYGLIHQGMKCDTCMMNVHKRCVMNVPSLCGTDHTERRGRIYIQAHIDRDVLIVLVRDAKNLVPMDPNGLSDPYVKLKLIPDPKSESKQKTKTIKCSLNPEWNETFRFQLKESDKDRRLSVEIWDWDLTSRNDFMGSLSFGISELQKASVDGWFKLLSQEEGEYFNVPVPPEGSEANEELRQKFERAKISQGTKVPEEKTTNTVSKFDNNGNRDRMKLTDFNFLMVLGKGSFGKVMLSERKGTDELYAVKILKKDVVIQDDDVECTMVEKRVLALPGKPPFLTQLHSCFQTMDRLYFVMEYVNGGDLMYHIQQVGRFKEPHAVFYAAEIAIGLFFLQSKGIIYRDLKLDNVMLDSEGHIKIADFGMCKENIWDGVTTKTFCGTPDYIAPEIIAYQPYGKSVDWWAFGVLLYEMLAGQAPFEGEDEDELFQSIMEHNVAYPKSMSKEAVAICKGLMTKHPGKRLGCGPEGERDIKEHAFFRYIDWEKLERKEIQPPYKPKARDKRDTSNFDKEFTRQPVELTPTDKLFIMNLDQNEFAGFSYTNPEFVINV
Chain of Wee1-like protein kinase (Homo sapiens) (P30291 whole entry, looked up, the tested form may be a part): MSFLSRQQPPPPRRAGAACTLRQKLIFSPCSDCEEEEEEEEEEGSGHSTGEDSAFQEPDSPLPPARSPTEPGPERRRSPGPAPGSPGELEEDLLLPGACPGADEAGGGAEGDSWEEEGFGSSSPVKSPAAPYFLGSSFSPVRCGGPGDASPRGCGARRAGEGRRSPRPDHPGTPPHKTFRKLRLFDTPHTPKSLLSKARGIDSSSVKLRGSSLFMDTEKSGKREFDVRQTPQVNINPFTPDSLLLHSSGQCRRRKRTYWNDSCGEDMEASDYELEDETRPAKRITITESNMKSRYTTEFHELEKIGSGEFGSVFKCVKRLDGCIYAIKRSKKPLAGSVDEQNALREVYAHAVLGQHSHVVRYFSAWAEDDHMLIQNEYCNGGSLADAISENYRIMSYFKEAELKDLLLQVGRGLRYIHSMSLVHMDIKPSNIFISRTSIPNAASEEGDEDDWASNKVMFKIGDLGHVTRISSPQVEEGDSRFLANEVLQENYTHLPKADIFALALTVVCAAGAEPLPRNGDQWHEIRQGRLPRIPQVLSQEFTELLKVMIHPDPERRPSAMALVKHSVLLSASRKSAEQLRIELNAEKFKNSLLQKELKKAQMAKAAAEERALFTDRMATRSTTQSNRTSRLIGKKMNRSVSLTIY
Chain of Receptor-type tyrosine-protein kinase FLT3 (Homo sapiens) (P36888 whole entry): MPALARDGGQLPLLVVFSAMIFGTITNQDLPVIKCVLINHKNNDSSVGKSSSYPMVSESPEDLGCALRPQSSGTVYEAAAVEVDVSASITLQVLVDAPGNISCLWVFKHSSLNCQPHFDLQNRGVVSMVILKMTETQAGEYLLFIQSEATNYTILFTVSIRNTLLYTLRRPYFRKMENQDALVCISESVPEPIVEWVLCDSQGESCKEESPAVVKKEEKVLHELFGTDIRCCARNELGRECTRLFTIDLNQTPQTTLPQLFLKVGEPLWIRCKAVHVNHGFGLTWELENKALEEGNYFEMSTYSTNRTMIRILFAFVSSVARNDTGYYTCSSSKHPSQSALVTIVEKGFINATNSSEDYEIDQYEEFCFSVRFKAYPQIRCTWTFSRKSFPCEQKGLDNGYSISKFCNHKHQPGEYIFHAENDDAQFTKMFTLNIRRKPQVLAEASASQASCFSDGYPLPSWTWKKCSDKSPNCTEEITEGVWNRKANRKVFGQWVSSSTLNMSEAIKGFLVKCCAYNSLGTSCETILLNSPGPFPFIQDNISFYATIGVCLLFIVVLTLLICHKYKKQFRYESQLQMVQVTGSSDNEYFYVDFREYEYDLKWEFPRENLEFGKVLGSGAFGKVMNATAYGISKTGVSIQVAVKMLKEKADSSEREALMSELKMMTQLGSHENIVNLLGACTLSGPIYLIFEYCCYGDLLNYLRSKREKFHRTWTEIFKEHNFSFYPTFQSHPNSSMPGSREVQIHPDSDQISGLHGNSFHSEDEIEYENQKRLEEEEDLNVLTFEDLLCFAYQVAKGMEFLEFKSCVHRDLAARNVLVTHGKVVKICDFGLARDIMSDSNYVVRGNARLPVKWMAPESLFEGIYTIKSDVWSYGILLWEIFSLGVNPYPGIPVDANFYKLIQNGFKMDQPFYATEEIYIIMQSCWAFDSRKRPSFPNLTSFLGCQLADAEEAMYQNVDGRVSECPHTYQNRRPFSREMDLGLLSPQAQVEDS
Chain of Casein kinase II subunit alpha' (Homo sapiens) (P19784 whole entry, looked up): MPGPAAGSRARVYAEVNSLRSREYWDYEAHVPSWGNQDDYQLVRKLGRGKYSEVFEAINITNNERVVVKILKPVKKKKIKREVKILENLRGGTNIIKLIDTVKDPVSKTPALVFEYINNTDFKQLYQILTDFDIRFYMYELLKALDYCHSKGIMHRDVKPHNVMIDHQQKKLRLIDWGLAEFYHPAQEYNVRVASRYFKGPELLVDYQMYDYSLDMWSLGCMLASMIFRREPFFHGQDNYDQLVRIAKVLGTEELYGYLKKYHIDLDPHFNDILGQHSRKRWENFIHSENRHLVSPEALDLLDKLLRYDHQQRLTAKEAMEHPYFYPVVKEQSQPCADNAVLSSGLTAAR

Compound	Activity [1]	Activity [2]	Activity [3]	Activity [4]	Activity [5]	Activity [6]	Activity [7]	Activity [8]	Activity [9]	Activity [10]	Activity [11]	Activity [12]	Activity [13]
CC[C@H](Nc1ncnc2[nH]cnc12)c1nc2cccc(F)c2c(=O)n1-c1ccccc1	104%	96.2%	95.3%	94.6%	96.7%	87.3%	95%	99.3%	101%	109%	91.8%	91%	102%
C[C@H](Nc1ncnc2nc[nH]c12)c1cc2cccc(Cl)c2c(=O)n1-c1ccccc1	106%	95.8%	91.5%	94.6%	87.3%	90%	100%	101%	95.4%	104%	99.5%	93.9%	97%
CC(C)Oc1ccc(-c2nn([C@@H](C)c3oc4ccc(F)cc4c(=O)c3-c3cccc(F)c3)c3ncnc(N)c23)cc1F [UMBRALISIB]	111%	92.3%	99.6%	92.8%	106%	96.7%	96.4%	95.5%	100%	117%	86.4%	91.3%	103%
